Activity calls are given as the source filed them. The calls are words filed in the database; no cut-off is given here.
Legend:
MIA PaCa-2 [1] = assay: Induction of cell arrest in human MIA PaCa-2 cells assessed as early apoptotic cells at 500 nM measured after 4 days by Annexin V-FITC and propidium iodide (PI) staining based assay (reference value: 1.07%); assay type: functional; details: time 4 day
MIA PaCa-2 [2] = assay: Induction of cell arrest in human MIA PaCa-2 cells assessed as accumulation of cells at G2 phase at 100 nM measured after 96 hrs by PI staining based flow cytometry (reference value: 11.2%); assay type: functional
MIA PaCa-2 [3] = assay: Induction of cell arrest in human MIA PaCa-2 cells assessed as accumulation of cells at G1 phase at 500 nM measured after 96 hrs by PI staining based flow cytometry (reference value: 64%); assay type: functional
MIA PaCa-2 [4] = assay: Induction of intracellular ROS generation in human MIA PaCa-2 cells at 0.1 to 5 uM incubated for 96 hrs by DCFH-DA staining based flow cytometry; assay type: functional, cell-based; details: dose 0.1-5 µM
MIA PaCa-2 [5] = assay: Induction of cell arrest in human MIA PaCa-2 cells assessed as accumulation of cells at S phase at 25 nM measured after 96 hrs by PI staining based flow cytometry (reference value: 16.8%); assay type: functional
MIA PaCa-2 [6] = assay: Reduction in spare oxygen consumption rate (OCR) in human MIA PaCa-2 cells incubated for 168 hrs; assay type: functional, cell-based; details: dose 1-200 nM
MIA PaCa-2 [7] = assay: Effect on SDHB protein complexes in human MIA PaCa-2 cells reduction in NDUFB8 protein level at 0.01 to 10 uM by Western blot analysis; assay type: functional, cell-based; details: dose 0.01-10 µM
MIA PaCa-2 [8] = assay: Induction of cell arrest in human MIA PaCa-2 cells assessed as early apoptotic cells at 200 nM measured after 4 days by Annexin V-FITC and propidium iodide (PI) staining based assay (reference value: 1.07%); assay type: functional; details: time 4 day
MIA PaCa-2 [9] = assay: Induction of cell arrest in human MIA PaCa-2 cells assessed as accumulation of cells at S phase at 200 nM measured after 96 hrs by PI staining based flow cytometry (reference value: 16.8%); assay type: functional
MIA PaCa-2 [10] = assay: Reduction in maximal oxygen consumption rate (OCR) in human MIA PaCa-2 cells incubated for 168 hrs; assay type: functional, cell-based; details: dose 1-200 nM
MIA PaCa-2 [11] = assay: Reduction of protein complexes of mitochondrial electron transport chain in human MIA PaCa-2 cells reduction in UQCRC2 protein level by Western blot analysis; assay type: functional, cell-based; details: dose 0.001-5 µM
MIA PaCa-2 [12] = assay: Induction of cell arrest in human MIA PaCa-2 cells assessed as late apoptotic cells at 500 nM measured after 4 days by Annexin V-FITC and propidium iodide (PI) staining based assay (reference value: 3.23%); assay type: functional; details: time 4 day
MIA PaCa-2 [13] = assay: Induction of cell arrest in human MIA PaCa-2 cells assessed as viable cells at 200 nM measured after 4 days by Annexin V-FITC and propidium iodide (PI) staining based assay (reference value: 94.9%); assay type: functional; details: MIA PaCa-2, 96 h, time 4 day, read-out: Activity
MIA PaCa-2 [14] = assay: Down-regulation of ND1 gene expression in human MIA PaCa-2 cells at 0.1 to 1 uM measured after 12 hrs by RT-qPCR analysis; assay type: functional, cell-based; details: dose 0.1-1 µM

CCN(CC)C(=O)[C@@H](C)Oc1cc2oc(=O)cc(-c3ccccc3C)c2cc1F
Activity (MIA PaCa-2 [1]): 0.77% | Activity (MIA PaCa-2 [2]): 11.3% | Activity (MIA PaCa-2 [3]): 63.4% | Activity (MIA PaCa-2 [4]): inactive | Activity (MIA PaCa-2 [5]): 14.2% | Activity (MIA PaCa-2 [6]): Dose-Dependent Effect | Activity (MIA PaCa-2 [7]): inactive | Activity (MIA PaCa-2 [8]): 1.06% | Activity (MIA PaCa-2 [9]): 17% | Activity (MIA PaCa-2 [10]): Dose-Dependent Effect | Activity (MIA PaCa-2 [11]): Dose-Dependent Effect | Activity (MIA PaCa-2 [12]): 3.69% | viability at 0.2 µM (MIA PaCa-2 [13]): 94.2% | Activity (MIA PaCa-2 [14]): Active

From ChEMBL document CHEMBL5550206, “Identification of 6-Fluorine-Substituted Coumarin Analogues as POLRMT Inhibitors with High Potency and Safety for Treatment of Pancreatic Cancer” (J Med Chem, 2024)
